{
  "source": "patent US20080269162A1",
  "about": "“Novel Medicaments for Anti-Retroviral Treatments” (priority 2006, published 2008)",
  "key": {"RT of the UG92029 virus": {"system": "RT of the UG92029 virus", "experiment": "Direct inhibitory action on RT of the UG92029 virus", "type": "biochemical, HIV", "conditions": "viral concentration corresponding to RT activity of 220,000 dpm, FIG. 7", "from_the_text": "(§1) In order to perform these measurements, the method described in detail hereinbefore was followed (Example 2)."}, "RT of the NDK virus": {"molecular_target": "T1, RT of the NDK virus (Human immunodeficiency virus type 1 group M subtype D, UniProt P18802)", "T1 construct": "host or cells: virus preparation (native virion RT)", "experiment": "Direct inhibitory action on RT of the NDK virus", "type": "biochemical, HIV", "conditions": "viral concentration corresponding to RT activity of 81,000 dpm, FIG. 9", "from_the_text": "as §1"}, "RT of the PIC CH virus": {"system": "RT of the PIC CH virus", "experiment": "Direct inhibitory action on RT of the PIC CH virus", "type": "biochemical, HIV", "conditions": "viral concentration corresponding to RT activity of 105,000 dpm, FIG. 8", "from_the_text": "as §1"}, "CEM cells": {"system": "CEM cells", "experiment": "In vitro cytotoxicity, number of CEM cells"}, "NDK virus": {"system": "NDK virus", "experiment": "Number of syncitia in MT4 cell culture infected by NDK virus", "type": "cell-based, HIV", "set-up": "key to Number of Syncitia in the Culture (wells), J3 / Number of Syncitia in the Culture (wells), J4 / Number of Syncitia in the Culture (wells), J5 / Number of Syncitia in the Culture (wells), J6: the absence of syncitia is indicated by a minus (−) sign; the (+), +, ++, ++T signs indicate an increasing number of syncitia in each well; the (+), +, ++, ++T signs indicate an increasing number of syncitia in each well; the (+), +, ++, ++T signs indicate an increasing number of syncitia in each well; the (+), +, ++, ++T signs indicate an increasing number of syncitia in each well; The indication “T” indicates the death of the cells", "conditions": "10 μg/mL; for Number of Syncitia in the Culture (wells), J3: day 3; for Number of Syncitia in the Culture (wells), J4: day 4; for Number of Syncitia in the Culture (wells), J5: day 5; for Number of Syncitia in the Culture (wells), J6: day 6", "experimental": "Then infection of the cells was carried out by adding to each well, with the exception of those wells being used as control cells, 50 μL of previously titrated virus dilution.\nAfter an additional hour of incubation, the plate was centrifuged and the supernatant containing the residual virus was discarded.\nAfter 3 days of culture, the cells were diluted to half and the syncitia were observed using the inverse microscope from day 3 to day 7 after having been placed in suspension.\nIn the third case, the MT4 cell culture was preincubated for one hour at 37° C., then the cells were infected, the whole was subjected to incubation for one hour at 37° C., then to centrifugation with the elimination of the supernatant containing the virus that had not penetrated into the cells.\nIn each of the four types of experiments that have just been described, and as previously indicated, the cells were diluted to half after three days of culture and then the syncitia were observed using the inverted microscope from day 3 to day 7.\nIn the experiments described in greater detail hereinafter, the absence of syncitia is indicated by a minus (−) sign and the (+), +, ++, ++T signs indicate an increasing number of syncitia in each well.\nThe indication “T” indicates the death of the cells."}, "[1]": {"conditions": "Continuous, before, during and after infection"}},
  "note": "Where “and” joins values, the source holds several entries; their conditions need not be identical. Equal entries are not always repeated.",
  "data": [
    {"substance": "Dextran sulphate", "values": [
      {"measurement": "inhibition of RT", "setting": "RT of the UG92029 virus; 2.5 μg/mL", "value": 6, "unit": "%"},
      {"measurement": "inhibition of RT", "setting": "RT of the UG92029 virus; 3 μg/mL", "value": 8, "unit": "%"},
      {"measurement": "inhibition of RT", "setting": "RT of the NDK virus; 0.6 μg/mL", "value": 11, "unit": "%"},
      {"measurement": "inhibition of RT", "setting": "RT of the NDK virus; 0.8 μg/mL", "value": 18, "unit": "%"},
      {"measurement": "inhibition of RT", "setting": "RT of the PIC CH virus; 0.6 μg/mL", "value": "does not produce any inhibition at all"},
      {"measurement": "inhibition of RT", "setting": "RT of the PIC CH virus; 0.8 μg/mL", "value": "still does not induce any inhibition"},
      {"measurement": "Number of CEM cells", "setting": "CEM cells; Day 1, 125 μg/mL", "value": "500000 mL⁻¹ and 900000 mL⁻¹"},
      {"measurement": "Number of CEM cells", "setting": "CEM cells; Day 1, 250 μg/mL", "value": "500000 mL⁻¹ and 900000 mL⁻¹"},
      {"measurement": "Number of CEM cells", "setting": "CEM cells; Day 1, 1000 μg/mL", "value": "800000 mL⁻¹ and 500000 mL⁻¹"},
      {"measurement": "Number of CEM cells", "setting": "CEM cells; Day 2, 125 μg/mL", "value": "1.5e+06 mL⁻¹ and 1e+06 mL⁻¹"},
      {"measurement": "Number of CEM cells", "setting": "CEM cells; Day 2, 250 μg/mL", "value": "1.3e+06 mL⁻¹ and 1.4e+06 mL⁻¹"},
      {"measurement": "Number of CEM cells", "setting": "CEM cells; Day 2, 500 μg/mL", "value": "1.3e+06 mL⁻¹ and 1.7e+06 mL⁻¹"},
      {"measurement": "Number of CEM cells", "setting": "CEM cells; Day 2, 1000 μg/mL", "value": "1.3e+06 mL⁻¹ and 1.7e+06 mL⁻¹"},
      {"measurement": "Number of CEM cells", "setting": "CEM cells; Day 3, 125 μg/mL", "value": "2.3e+06 mL⁻¹ and 2.1e+06 mL⁻¹"},
      {"measurement": "Number of CEM cells", "setting": "CEM cells; Day 3, 250 μg/mL", "value": "1.9e+06", "unit": "mL⁻¹"},
      {"measurement": "Number of CEM cells", "setting": "CEM cells; Day 3, 500 μg/mL", "value": "2.1e+06 mL⁻¹ and 1.5e+06 mL⁻¹"},
      {"measurement": "Number of CEM cells", "setting": "CEM cells; Day 3, 1000 μg/mL", "value": "2e+06 mL⁻¹ and 2.7e+06 mL⁻¹"},
      {"measurement": "Number of Syncitia in the Culture (wells), J3", "setting": "NDK virus; After infection", "value": "−"},
      {"measurement": "Number of Syncitia in the Culture (wells), J4", "setting": "NDK virus; After infection", "value": "− and +"},
      {"measurement": "Number of Syncitia in the Culture (wells), J5", "setting": "NDK virus; After infection", "value": "− and ++"},
      {"measurement": "Number of Syncitia in the Culture (wells), J6", "setting": "NDK virus; After infection", "value": "− and T"},
      {"measurement": "Number of Syncitia in the Culture (wells), J3", "setting": "NDK virus; Before infection", "value": "−"},
      {"measurement": "Number of Syncitia in the Culture (wells), J4", "setting": "NDK virus; Before infection", "value": "−"},
      {"measurement": "Number of Syncitia in the Culture (wells), J5", "setting": "NDK virus; Before infection", "value": "−"},
      {"measurement": "Number of Syncitia in the Culture (wells), J6", "setting": "NDK virus; Before infection", "value": "−"},
      {"measurement": "Number of Syncitia in the Culture (wells), J3", "setting": "NDK virus; [1]", "value": "−"},
      {"measurement": "Number of Syncitia in the Culture (wells), J4", "setting": "NDK virus; [1]", "value": "+"},
      {"measurement": "Number of Syncitia in the Culture (wells), J5", "setting": "NDK virus; [1]", "value": "++"},
      {"measurement": "Number of Syncitia in the Culture (wells), J6", "setting": "NDK virus; [1]", "value": "T"},
      {"measurement": "Number of Syncitia in the Culture (wells), J3", "setting": "NDK virus; During infection", "value": "−"},
      {"measurement": "Number of Syncitia in the Culture (wells), J4", "setting": "NDK virus; During infection", "value": "− and (+)"},
      {"measurement": "Number of Syncitia in the Culture (wells), J5", "setting": "NDK virus; During infection", "value": "− and ++"},
      {"measurement": "Number of Syncitia in the Culture (wells), J6", "setting": "NDK virus; During infection", "value": "++ and T"},
      {"measurement": "wells inhibited", "setting": "NDK virus; cells treated before viral infection", "value": "2 wells out of 2 inhibited"}
    ]}
  ]
}
